Data as given in ChEMBL document CHEMBL3797099, “Re-exploration of the mGlu₁ PAM Ro 07-11401 scaffold: Discovery of analogs with improved CNS penetration despite steep SAR” (Bioorg Med Chem Lett, 2016).

Legend:
[1] = target: T1, Metabotropic glutamate receptor 1 (Homo sapiens, UniProt Q13255); test: Positive allosteric modulation of human mGlu1 receptor assessed as increase in glutamate-induced calcium mobilization relative to glutamate; assay type: functional
Target sequence in this assay (Q13255 19-1194 limits assumed): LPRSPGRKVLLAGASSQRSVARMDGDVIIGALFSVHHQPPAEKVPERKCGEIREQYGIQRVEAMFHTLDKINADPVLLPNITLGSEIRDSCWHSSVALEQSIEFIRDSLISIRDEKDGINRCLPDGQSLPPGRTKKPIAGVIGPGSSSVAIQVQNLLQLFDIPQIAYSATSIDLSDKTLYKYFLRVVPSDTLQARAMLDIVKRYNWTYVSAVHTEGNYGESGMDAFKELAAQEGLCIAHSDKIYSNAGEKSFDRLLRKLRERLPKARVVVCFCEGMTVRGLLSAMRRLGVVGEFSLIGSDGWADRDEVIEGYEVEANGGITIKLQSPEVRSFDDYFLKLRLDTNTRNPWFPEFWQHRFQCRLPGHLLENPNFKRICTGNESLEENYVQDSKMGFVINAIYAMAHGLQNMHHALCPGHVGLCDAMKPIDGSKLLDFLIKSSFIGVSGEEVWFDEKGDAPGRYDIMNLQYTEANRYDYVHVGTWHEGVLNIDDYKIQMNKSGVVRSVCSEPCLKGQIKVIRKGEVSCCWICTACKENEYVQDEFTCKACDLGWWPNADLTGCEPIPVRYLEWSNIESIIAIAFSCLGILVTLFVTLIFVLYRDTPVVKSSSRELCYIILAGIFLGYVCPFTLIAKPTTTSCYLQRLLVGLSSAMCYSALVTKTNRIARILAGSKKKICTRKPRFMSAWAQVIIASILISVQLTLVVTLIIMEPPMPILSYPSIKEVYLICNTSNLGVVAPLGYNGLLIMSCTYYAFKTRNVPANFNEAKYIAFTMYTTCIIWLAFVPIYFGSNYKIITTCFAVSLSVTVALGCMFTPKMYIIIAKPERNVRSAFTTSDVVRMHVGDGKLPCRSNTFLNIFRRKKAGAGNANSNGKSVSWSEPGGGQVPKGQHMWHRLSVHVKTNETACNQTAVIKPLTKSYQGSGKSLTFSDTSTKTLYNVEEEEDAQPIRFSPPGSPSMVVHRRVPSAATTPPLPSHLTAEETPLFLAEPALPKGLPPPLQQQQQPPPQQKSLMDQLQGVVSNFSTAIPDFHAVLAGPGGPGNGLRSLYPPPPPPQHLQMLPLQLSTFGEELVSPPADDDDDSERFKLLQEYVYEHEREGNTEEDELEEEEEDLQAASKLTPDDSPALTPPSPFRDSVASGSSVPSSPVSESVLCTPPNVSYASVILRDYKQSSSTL

[2] = target: T1, Metabotropic glutamate receptor 1; test: Positive allosteric modulation of human mGlu1 receptor assessed as increase in glutamate-induced calcium mobilization; assay type: functional
Target sequence in this assay (Q13255 whole entry): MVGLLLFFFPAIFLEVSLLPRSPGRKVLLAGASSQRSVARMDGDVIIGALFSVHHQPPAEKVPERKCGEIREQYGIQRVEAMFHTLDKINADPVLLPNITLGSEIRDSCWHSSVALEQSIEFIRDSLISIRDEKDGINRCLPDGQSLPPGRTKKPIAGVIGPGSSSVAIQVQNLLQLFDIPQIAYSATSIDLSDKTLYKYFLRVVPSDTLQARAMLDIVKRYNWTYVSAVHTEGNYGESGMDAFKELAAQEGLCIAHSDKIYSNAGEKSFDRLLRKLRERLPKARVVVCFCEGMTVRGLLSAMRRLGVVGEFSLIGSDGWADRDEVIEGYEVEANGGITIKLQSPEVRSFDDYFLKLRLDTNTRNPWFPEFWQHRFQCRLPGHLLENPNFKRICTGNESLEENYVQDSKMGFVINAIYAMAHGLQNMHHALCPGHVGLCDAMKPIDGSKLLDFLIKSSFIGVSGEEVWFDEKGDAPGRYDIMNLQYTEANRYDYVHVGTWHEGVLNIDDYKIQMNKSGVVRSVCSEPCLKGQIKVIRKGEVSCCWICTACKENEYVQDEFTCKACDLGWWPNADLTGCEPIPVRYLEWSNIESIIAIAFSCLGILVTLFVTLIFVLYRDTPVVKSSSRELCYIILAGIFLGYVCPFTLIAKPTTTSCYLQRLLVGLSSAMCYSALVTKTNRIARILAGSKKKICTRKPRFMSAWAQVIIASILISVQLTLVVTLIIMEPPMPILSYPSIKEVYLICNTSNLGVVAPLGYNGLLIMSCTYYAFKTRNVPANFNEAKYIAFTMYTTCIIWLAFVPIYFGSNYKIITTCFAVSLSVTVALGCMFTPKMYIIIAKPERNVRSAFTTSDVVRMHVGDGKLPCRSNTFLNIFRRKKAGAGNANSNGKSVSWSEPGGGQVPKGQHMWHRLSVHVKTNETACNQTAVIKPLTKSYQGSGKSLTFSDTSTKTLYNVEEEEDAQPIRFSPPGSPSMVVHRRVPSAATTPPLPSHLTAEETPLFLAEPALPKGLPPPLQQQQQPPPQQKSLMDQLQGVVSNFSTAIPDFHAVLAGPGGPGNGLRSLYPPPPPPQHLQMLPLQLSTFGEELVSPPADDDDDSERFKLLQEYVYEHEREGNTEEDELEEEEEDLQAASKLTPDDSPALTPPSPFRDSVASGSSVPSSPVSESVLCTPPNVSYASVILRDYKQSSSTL

[3] = target: T1, Metabotropic glutamate receptor 1; test: Positive allosteric modulation of human mGlu1 receptor expressed in wild type T-Rex 293 cells assessed as increase in glutamate-induced calcium mobilization incubated for 2 mins before glutamate stimulation for 2.2 mins relative to glutamate; assay type: functional, cell-based
Target sequence in this assay (Q13255 19-1194 limits assumed): as the sequence (Q13255 19-1194 limits assumed) above

Cytochrome P450 2D6 = Cytochrome P450 2D6 (Homo sapiens, UniProt P10635); test: Inhibition of CYP2D6 (unknown origin); assay type: ADME
Cytochrome P450 2D6, sequence (P10635 whole entry): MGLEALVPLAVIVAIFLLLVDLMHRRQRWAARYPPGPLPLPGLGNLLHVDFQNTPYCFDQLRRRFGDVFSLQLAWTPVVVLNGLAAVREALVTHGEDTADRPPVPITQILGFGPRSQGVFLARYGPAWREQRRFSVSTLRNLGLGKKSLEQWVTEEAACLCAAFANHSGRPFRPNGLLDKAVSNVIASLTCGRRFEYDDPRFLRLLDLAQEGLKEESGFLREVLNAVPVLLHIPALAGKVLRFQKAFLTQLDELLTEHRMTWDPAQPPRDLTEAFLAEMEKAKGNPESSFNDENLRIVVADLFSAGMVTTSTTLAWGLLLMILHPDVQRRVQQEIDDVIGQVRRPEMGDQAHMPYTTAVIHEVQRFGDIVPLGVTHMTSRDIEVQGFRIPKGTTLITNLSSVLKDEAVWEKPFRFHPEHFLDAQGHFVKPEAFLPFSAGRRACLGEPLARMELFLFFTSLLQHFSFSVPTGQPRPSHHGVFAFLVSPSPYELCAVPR

Brain [4] = test: Drug uptake in rat brain at 0.25 mg/kg, iv measured at the last time point; assay type: ADME, organism-based; details: in vivo
[5] = Ratio of drug level in brain to plasma in rat at 0.25 mg/kg, iv; assay type: ADME, organism-based
[6] = target: Metabotropic glutamate receptor 1 (Rattus norvegicus) (UniProt P23385); test: Positive allosteric modulation of rat mGlu1 receptor assessed as increase in glutamate-induced calcium mobilization relative to glutamate; assay type: functional
Cytochrome P450 3A4 = Cytochrome P450 3A4 (Homo sapiens, UniProt P08684); test: Inhibition of CYP3A4 (unknown origin); assay type: ADME
Cytochrome P450 3A4, sequence (P08684 whole entry): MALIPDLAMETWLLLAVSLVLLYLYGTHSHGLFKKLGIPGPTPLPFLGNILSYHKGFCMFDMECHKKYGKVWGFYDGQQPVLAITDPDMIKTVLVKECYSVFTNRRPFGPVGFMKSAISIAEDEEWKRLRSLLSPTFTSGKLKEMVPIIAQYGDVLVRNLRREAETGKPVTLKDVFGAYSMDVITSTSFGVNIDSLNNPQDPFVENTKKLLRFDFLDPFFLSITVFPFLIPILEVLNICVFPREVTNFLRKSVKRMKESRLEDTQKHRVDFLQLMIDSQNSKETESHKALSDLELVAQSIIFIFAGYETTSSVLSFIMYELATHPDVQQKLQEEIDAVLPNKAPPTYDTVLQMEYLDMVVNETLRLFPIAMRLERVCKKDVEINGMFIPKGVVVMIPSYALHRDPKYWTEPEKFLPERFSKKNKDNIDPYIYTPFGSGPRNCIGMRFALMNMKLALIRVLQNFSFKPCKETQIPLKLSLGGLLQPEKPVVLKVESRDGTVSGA

Plasma [7] = test: Plasma concentration in rat at 0.25 mg/kg, iv measured at the last time point; assay type: ADME, organism-based; details: in vivo
Brain [8] = test: Fraction unbound in rat brain homogenate; assay type: ADME, tissue-based
[9] = target: T1, Metabotropic glutamate receptor 1; test: Positive allosteric modulation of human mGlu1 receptor assessed as potentiation of glutamate-induced effect at 10 uM relative to control
Target sequence in this assay (Q13255 19-1194 limits assumed): as the sequence (Q13255 19-1194 limits assumed) above

[10] = target: Metabotropic glutamate receptor 1 (Rattus norvegicus, UniProt P23385); test: Positive allosteric modulation of rat mGlu1 receptor assessed as increase in glutamate-induced calcium mobilization; assay type: functional
Metabotropic glutamate receptor 1 (Rattus norvegicus, UniProt P23385), sequence (P23385 whole entry): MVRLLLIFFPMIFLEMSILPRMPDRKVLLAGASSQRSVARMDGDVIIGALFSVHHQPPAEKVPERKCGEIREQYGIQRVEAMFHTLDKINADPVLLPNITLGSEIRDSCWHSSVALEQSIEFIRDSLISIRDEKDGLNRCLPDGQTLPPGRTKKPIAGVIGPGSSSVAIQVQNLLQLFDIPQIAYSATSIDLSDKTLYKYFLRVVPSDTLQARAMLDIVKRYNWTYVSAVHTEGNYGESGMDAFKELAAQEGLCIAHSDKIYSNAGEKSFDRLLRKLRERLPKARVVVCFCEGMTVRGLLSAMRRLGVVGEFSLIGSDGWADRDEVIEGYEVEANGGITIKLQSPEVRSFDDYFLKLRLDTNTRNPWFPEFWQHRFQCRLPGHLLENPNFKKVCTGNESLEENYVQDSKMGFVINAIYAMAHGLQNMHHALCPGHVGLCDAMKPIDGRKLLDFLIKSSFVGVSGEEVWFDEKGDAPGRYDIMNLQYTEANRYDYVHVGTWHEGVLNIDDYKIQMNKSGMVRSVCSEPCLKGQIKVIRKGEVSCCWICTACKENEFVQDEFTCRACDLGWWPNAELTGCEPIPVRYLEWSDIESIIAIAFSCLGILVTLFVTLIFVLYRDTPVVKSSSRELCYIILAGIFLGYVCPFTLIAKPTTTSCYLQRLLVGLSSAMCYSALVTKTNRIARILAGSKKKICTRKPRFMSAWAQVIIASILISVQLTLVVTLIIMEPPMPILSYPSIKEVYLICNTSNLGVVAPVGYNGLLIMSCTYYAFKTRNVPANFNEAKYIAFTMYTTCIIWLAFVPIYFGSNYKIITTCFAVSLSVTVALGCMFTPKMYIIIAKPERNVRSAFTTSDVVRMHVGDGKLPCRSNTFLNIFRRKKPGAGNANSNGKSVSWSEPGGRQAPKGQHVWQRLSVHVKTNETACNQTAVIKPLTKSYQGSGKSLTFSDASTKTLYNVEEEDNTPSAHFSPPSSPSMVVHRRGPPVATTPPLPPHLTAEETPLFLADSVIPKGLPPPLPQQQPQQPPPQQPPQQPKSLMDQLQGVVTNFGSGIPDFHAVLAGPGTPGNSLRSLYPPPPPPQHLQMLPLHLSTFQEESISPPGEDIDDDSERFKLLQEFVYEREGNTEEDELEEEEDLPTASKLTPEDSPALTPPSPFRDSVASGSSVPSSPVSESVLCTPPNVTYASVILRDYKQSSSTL

[11] = target: T1, Metabotropic glutamate receptor 1; test: Positive allosteric modulation of human mGlu1 receptor assessed as glutamate efficacy at 10 uM (reference value: 95.2 +/- 3.5 %)
Target sequence in this assay (Q13255 19-1194 limits assumed): as the sequence (Q13255 19-1194 limits assumed) above

[12] = target: T1, Metabotropic glutamate receptor 1; test: Positive allosteric modulation of human mGlu1 receptor expressed in wild type T-Rex 293 cells assessed as increase in glutamate-induced calcium mobilization incubated for 2 mins before glutamate stimulation for 2.2 mins; assay type: functional, cell-based
Target sequence in this assay (Q13255 whole entry): as the sequence (Q13255 whole entry) above

Cytochrome P450 1A2 = target: T2, Cytochrome P450 1A2 (Homo sapiens, UniProt P05177); test: Inhibition of CYP1A2 (unknown origin); assay type: ADME
T2 sequence (P05177 whole entry): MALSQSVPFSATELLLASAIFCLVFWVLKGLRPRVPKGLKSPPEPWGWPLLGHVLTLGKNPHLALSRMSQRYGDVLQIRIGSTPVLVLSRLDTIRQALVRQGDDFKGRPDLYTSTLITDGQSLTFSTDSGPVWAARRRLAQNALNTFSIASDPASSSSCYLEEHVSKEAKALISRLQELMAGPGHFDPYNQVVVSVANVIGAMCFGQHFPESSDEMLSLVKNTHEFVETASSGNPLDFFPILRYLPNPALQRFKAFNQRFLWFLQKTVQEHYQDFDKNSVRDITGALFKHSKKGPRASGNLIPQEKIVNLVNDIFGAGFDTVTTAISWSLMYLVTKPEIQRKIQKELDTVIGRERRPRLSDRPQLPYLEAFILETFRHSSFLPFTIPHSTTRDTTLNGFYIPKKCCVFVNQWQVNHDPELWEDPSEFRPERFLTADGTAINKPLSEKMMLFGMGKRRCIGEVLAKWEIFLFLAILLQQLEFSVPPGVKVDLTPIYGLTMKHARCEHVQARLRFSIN

Plasma [13] = test: Fraction unbound in rat plasma; assay type: ADME, cell-free
[14] = Intrinsic clearance in human liver microsomes; assay type: ADME; details: read-out: CLH
Cytochrome P450 2C9 = Cytochrome P450 2C9 (Homo sapiens, UniProt P11712); test: Inhibition of CYP2C9 (unknown origin); assay type: ADME
[15] = Fraction unbound in human plasma; assay type: ADME, cell-free

%max [1]	EC50 ([2]; read-out: EC50)	IC50 (Cytochrome P450 2D6)	Drug uptake (Brain [4])	Kp [5]	%max [6]	IC50 (Cytochrome P450 3A4)	Cp (Plasma [7])	Fu (Brain [8])	fold change (FC) [9]	EC50 ([10]; read-out: EC50)	Efficacy [11]	Compound	also measured
96%	4.8 µM	–	–	–	–	–	–	–	–	–	–	O=C(Nc1nc2ccccc2s1)C1c2ccccc2Oc2ccccc21	–
–	–	> 30 µM	81 ng/g	0.29	109%	> 30 µM	276 ng/mL	0.001	6.9	0.277 µM	109%	O=C(Nc1nc(C(F)(F)F)co1)C1c2ccccc2Oc2ccccc21	%max [3]: 96%; EC50 [12]: 0.246 µM
68%	> 10 µM	–	–	–	–	–	–	–	–	–	–	Cc1nc(NC(=O)C2c3ccccc3Oc3ccccc32)sc1C	pEC50 [2]: < 5
89%	0.9 µM	26.5 µM	78.7 ng/g	1.01	111%	> 30 µM	77.8 ng/mL	0.001	4.6	2.4 µM	115%	CC(C)c1csc(NC(=O)C2c3ccccc3Oc3ccccc32)n1	IC50 (Cytochrome P450 1A2): 19 µM; Fu (Plasma [13]): 0.002; CLint scaled [14]: 15.5 mL/min/kg; IC50 (Cytochrome P450 2C9): 2.1 µM; Fu [15]: 0.001
58%	1.7 µM	–	–	–	–	–	–	–	–	–	–	O=C(Nc1ccccn1)C1c2ccccc2Oc2ccccc21	–
75%	1.4 µM	–	–	–	111%	–	–	–	–	3.6 µM	–	O=C(Nc1nccs1)C1c2ccccc2Oc2ccccc21	EC50 ([10]; read-out: pEC50 (converted)): 3.72 µM
110%	0.71 µM	10.3 µM	83.6 ng/g	1.19	124%	> 30 µM	80.2 ng/mL	0.017	5.4	1.8 µM	115%	N#Cc1csc(NC(=O)C2c3ccccc3Oc3ccccc32)n1	IC50 (Cytochrome P450 1A2): 2.9 µM; Fu (Plasma [13]): 0.005; CLint scaled [14]: 9.85 mL/min/kg; IC50 (Cytochrome P450 2C9): 2.9 µM; EC50 ([2]; read-out: pEC50 (converted)): 0.724 µM; Fu [15]: 0.027
54%	> 10 µM	–	–	–	–	–	–	–	–	–	–	O=C(Nc1cncs1)C1c2ccccc2Oc2ccccc21	pEC50 [2]: < 5
101%	2.7 µM	–	–	–	–	–	–	–	–	–	–	Cc1nsc(NC(=O)C2c3ccccc3Oc3ccccc32)n1	–
